Experiment [1] deals with T1, PKC-θ (T538p) (Homo sapiens, UniProt Q04759).
T1 construct: endogenous in cells; host or cells: MCF7
The experiment in a line: Nuclear localization of PKC-θ (Fn/c, immunofluorescence) in cells treated with peptide inhibitor. The experiment is classed as cell-based. The settings on record: MCF7 breast cancer cell line; FIG. 1D. From the text:
(§1) FIG. 1 is a graphical, schematic and photographic representation showing that PKC-θ can be targeted for therapeutic intervention. A) Depicts the strength of binding of recombinant purified His6-PKC-θ to increasing concentrations of different subunits and subunit combinations (α2, α2β1, and β1) of the importin α/β heterodimer nuclear transport receptor using an AlphaScreen® binding assay as described in Wagstaff et al. (2011. Journal of Biomolecular Screening 16 (2):192-200). B-C) Depicts protein structure of PKC-θ indicating binding locations for the PKC-θ peptide inhibitor, PKCθi (RKEIDPPFRPKVK), including the nuclear localization sequence (NLS) of PKC-θ. D) The specificity of PKCθi was examined on cells treated with this peptide inhibitor. Cells were screened with primary antibodies to PKC-θ (T538p), PKC-β2, PKC-β1, PKC-α, PKC-ε and PKC-γ. The nuclear to cytoplasmic fluorescence ratio (Fn/c) using the equation: Fn/c=(Fn−Fb)/(Fc−Fb), where Fn is nuclear fluorescence, Fc is cytoplasmic fluorescence, and Fb is background fluorescence was used to determine the impact on nuclear translocation/localization. […] EC^50 of inhibitors calculated using GraphPad PRISM software. F) The PKC-θ kinase activity was measured using the PKC kinase activity kit from ENZO life sciences and recombinant PKC-θ; C27 is an inhibitor of PKC-θ kinase activity, which is disclosed in Jimenez et al. (2013. […]

Experiment [2] addresses T2, PKC-ε (Homo sapiens, UniProt Q02156).
T2 construct: endogenous in cells; host or cells: MCF7
T2 sequence (Q02156 1-737): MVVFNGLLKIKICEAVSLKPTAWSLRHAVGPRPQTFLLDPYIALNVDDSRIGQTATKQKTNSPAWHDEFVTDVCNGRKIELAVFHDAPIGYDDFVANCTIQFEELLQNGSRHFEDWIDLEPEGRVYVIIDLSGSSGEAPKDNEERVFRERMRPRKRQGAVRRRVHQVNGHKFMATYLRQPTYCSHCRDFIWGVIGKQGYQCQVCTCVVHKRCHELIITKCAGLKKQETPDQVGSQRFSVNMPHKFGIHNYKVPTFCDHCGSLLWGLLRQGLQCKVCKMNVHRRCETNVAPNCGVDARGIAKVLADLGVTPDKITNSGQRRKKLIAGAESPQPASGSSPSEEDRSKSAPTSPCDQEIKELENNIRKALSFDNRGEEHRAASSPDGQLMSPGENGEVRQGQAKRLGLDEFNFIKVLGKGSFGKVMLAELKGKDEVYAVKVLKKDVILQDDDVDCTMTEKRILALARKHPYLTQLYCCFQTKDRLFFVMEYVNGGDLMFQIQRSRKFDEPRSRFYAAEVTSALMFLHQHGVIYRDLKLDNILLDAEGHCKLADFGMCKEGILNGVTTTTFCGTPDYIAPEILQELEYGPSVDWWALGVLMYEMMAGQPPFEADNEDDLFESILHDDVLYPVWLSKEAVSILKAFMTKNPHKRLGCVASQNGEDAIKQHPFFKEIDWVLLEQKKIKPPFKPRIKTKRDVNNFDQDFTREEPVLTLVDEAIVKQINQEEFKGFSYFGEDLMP
The experiment in a line: Nuclear localization of PKC-ε (Fn/c, immunofluorescence), specificity. The experiment is classed as cell-based. The settings on record: MCF7 breast cancer cell line; FIG. 1D.
Text: as §1

Experiment [3] concerns MCF7 cells. The experiment in a line: Cell proliferation (WST-1 assay). The experiment is classed as cell-based. The settings on record: FIG. 1E.
Text: as §1
(Formazan colour is commonly taken as a measure of viable cells.)

For experiment [4], the system named is PBMC cells isolated from CR and PD melanoma liquid biopsies. The experiment in a line: RT-PCR expression of IL-2, IFN-γ and TNF-α in PBMCs from melanoma patient liquid biopsies. The settings on record: FIG. 2B. The class given is cell-based, human. As to the method:
FIG. 2 is a photographic and graphical representation depicting a PKC-θ resistance signature in CD8^+ T-cells from BRAF negative melanoma patients. A) Melanoma patient formalin-fixed paraffin-embedded (FFPE) tissue from primary tumor baseline biopsy for either a complete response (CR), stable disease (SD) or progressive disease (PD) was processed by 3D high resolution microscopy using a Leica Bond RX Stainer. FFPE tissues were fixed and immunofluorescence microscopy was performed probing with primary antibodies to anti-PD1, anti-PKC-θ (T538p) and anti-CD8 with DAPI. Representative images for each dataset are shown. Graph plots represent the TCFI values for CD8, TNFI for PKC-θ and TCFI for PD1 measured using ImageJ minus background (N=40 cells per a patient sample). B) Peripheral blood mononuclear cells (PBMCs) isolated from melanoma patient liquid biopsies were pre-clinically screened with either control or PKCθi nuclear peptide inhibitor. PBMC Samples were screened in triplicate for expression of IL-2, IFN-γ and TNF-α. C) Melanoma patient FFPE tissue from primary tumor baseline biopsy for CR, SD and two PD cohorts defined by responder or resistant to Dual Immunotherapy was processed by 3D high resolution microscopy using a Leica Bond RX Stainer. FFPE tissues were fixed and immunofluorescence microscopy was performed probing with primary antibodies to anti-PD1, anti-PKC-θ (T538p), anti-CD8 and anti-ZEB1 with DAPI. Representative images for each dataset are shown. Graph plots represent the TCFI values for CD8, TNFI for PKC-θ and TNFI for ZEB1 measured using ImageJ minus background (N=40 cells per a patient sample).
IL-2, IFN-γ and TNF-α are markers of T-cell activation and effector capacity whereas ZEB1 is a negative regulator of T-cell responses and is linked with T-cell effector inhibition as well as cancer progression. Accordingly, the expression of these biomarkers was investigated in the context of modulating the PKC-θ pathway. Employing RT-PCR, the present inventors profiled expression of the effect of PKCθi in PBMC cells isolated from CR and PD melanoma liquid biopsies.

T1 sequence (Q04759 whole entry): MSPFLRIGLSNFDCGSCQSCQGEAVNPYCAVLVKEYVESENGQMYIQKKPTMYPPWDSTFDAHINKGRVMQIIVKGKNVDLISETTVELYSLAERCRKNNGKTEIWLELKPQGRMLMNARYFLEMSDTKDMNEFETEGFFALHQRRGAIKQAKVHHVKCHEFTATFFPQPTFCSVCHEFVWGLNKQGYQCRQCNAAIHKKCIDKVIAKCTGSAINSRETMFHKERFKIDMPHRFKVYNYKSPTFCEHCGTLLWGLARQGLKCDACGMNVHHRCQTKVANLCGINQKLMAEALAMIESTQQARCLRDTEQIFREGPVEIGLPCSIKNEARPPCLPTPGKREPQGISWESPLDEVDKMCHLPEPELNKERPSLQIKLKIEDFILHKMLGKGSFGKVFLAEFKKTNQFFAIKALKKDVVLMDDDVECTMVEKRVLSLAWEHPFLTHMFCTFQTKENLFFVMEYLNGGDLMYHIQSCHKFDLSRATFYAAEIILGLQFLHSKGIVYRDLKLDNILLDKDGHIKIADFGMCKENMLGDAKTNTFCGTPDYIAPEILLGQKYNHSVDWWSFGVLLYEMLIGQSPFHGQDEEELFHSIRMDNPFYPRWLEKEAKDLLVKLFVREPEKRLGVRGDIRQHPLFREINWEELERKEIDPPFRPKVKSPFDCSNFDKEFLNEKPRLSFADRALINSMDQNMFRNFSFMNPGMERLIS

Turning to RKEIDPPFRPKVK [PKCθi], the “nuclear localization of PKC-θ” value in experiment [1] is recorded as “markedly inhibit”. Moreover, the “nuclear localization of PKC-ε” value in experiment [2] was “no effect”. The “proliferation of MCF7 cells” value in experiment [3] is given as “significantly inhibit”. In experiment [4] (CR patient cohort), the “expression of IFN-γ” value was “some induction”, the “expression of IL-2” value is reported as “some induction” and the “expression of TNF-α” value is listed as “some induction”. In experiment [4] (PD patient cohort), the “expression of IFN-γ” value is listed as “significantly induced”, the “expression of IL-2” value was “significantly induced” and the “expression of TNF-α” value is “significantly induced”.

Values taken from patent US20200282010A1, “IMMUNOGENIC COMPOSITIONS AND USES THEREFOR” (Epiaxis Therapeutics Pty Ltd, priority 2017, published 2020).
